Here are results for 13 molecules from US20260207615A1, “FLUOROPYRIDOPYRIMIDINE AND FLUOROQUINAZOLINE DERIVATIES AND METHODS OF USE THEREOF” (Frontier Medicines Corporation, priority 2022, published 2026).

The target of this experiment is T1, KRAS G12C and cRAF interaction (Homo sapiens, UniProt P01116, C118S/C51S/C80L/G12C).
T1 construct: truncated version comprising amino acids 1-169
T1 sequence (P01116 1-169 isoform P01116-2 G12C/C51S/C80L/C118S): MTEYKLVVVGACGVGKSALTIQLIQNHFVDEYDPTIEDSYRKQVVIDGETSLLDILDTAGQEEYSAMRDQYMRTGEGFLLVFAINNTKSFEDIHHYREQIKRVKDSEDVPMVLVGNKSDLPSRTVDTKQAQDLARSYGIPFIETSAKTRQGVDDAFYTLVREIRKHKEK
Nature of the experiment: Inhibition of KRAS G12C and cRAF binding (AlphaScreen). The class given is biochemical. The note with it: KRAS G12C (Cys-light, aa 1-169) preloaded with GMPPNP, cRaf RBD (aa 50-131), 2 hours incubation. The method, then: The AlphaScreen technology was used to determine IC50s for compound inhibition of KRAS G12C (present as the Cys-light (C51S, C80L and C118S), truncated version comprising amino acids 1-169) and cRAF interaction. Compounds were diluted in 100% DMSO and each compound concentration was spotted at 200 nl/well onto low volume, white 384 well plates. The KRAS G12C contained a biotin-AviTag and the cRaf, as Ras-binding domain (amino acids 50-131, RBD), was GST-tagged. KRAS G12C was preloaded with the GTP analogue Guanosine 5′-[β,γ-imido]triphosphate (GMPPNP). The KRAS G12C was diluted in 25 mM Hepes, pH 7.4, 150 mM NaCl, 5 mM MgCl2, 0.01% TritonX-100 and 10 μM GMPPNP and added at 10 μl/well to compound-spotted plates resulting in a DMSO concentration of 2%. Plates were incubated for 2 hours. A mixture of RBD and the AlphaScreen streptavidin donor and glutathione acceptor beads diluted in 25 mM Hepes, pH 7.4, 150 mM NaCl, 5 mM MgCl2, 0.01% TritonX-100 and 2% DMSO was then added at 10 μl/well and incubated for 60-90 minutes before the samples were read for emission at 570 nm after excitation of the donor beads at 680 nm. All incubations were performed at room temperature. The final top compound concentration was 50 μM with 1:3 titrations for 10-point dose response curves. Final assay conditions were 0.5 nM KRAS G12C, 0.75 nM RBD and 5 μg/ml each of AlphaScreen donor and acceptor beads. IC50S were determined using nonlinear regression fit of [inhibitor] vs. response (4 parameters).
A counter assay was also set up to rule out inhibitors of the AlphaScreen technology itself. Compound plates were incubated for 2 hours as above with buffer only.
The AlphaScreen beads were added as above except biotin-AviTag-GST was substituted for the RBD. Samples were read and analyzed as above.
A general note: In Alpha technology, singlet oxygen from a donor bead excites a nearby acceptor bead.
For the molecule `C=CC(=O)N1CCN(c2nc(OC[C@@H]3CCCN3C)nc3c(F)c(-c4cccc5cccc(Cl)c45)ncc23)CC12COC2` [Example 1, (S)-1-(8-(7-(8-chloronaphthalen-1-yl)-8-fluoro-2-((1-methylpyrrolidin-2-yl)methoxy)pyrido[4,3-d]pyrimidin-4-yl)-2-oxa-5,8-diazaspiro[3.5]nonan-5-yl) prop-2-en-1-one], the IC50 (in general, the concentration that inhibits the measured activity by half) lay within 100 to 500 nM. `Cc1nccc(/C=C/C(=O)N2CCN(c3nc(OC[C@@]45CCCN4C[C@H](F)C5)nc4c(F)c(-c5cccc6cccc(Cl)c56)ncc34)CC23COC3)n1` [Example 2, (E)-1-(8-(7-(8-chloronaphthalen-1-yl)-8-fluoro-2-(((2R,7aS)-2-fluorotetrahydro-1H-pyrrolizin-7a(5H)-yl)methoxy)pyrido[4,3-d]pyrimidin-4-yl)-2-oxa-5,8-diazaspiro[3.5]nonan-5-yl)-3-(2-methylpyrimidin-4-yl) prop-2-en-1-one] yielded a 50% inhibitory concentration (IC50) of 100 to 500 nM. In the case of `CN(C/C=C/C(=O)N1CCN(c2nc(OC[C@@]34CCCN3C[C@H](F)C4)nc3c(F)c(-c4cccc5cccc(Cl)c45)ncc23)CC12COC2)CC1COC1` [Example 3, (E)-1-(8-(7-(8-chloronaphthalen-1-yl)-8-fluoro-2-(((2R,7aS)-2-fluorotetrahydro-1H-pyrrolizin-7a(5H)-yl)methoxy)pyrido[4,3-d]pyrimidin-4-yl)-2-oxa-5,8-diazaspiro[3.5]nonan-5-yl)-4-(methyl(oxetan-3-ylmethyl)amino)but-2-en-1-one] it was 10 to 100 nM. In turn, `O=C(/C=C/CN1[C@@H]2CC[C@H]1COC2)N1CCN(c2nc(OC[C@@]34CCCN3C[C@H](F)C4)nc3c(F)c(-c4cccc5cccc(Cl)c45)ncc23)CC12COC2` [Example 4, (E)-4-((1R,5S)-3-oxa-8-azabicyclo[3.2.1]octan-8-yl)-1-(8-(7-(8-chloronaphthalen-1-yl)-8-fluoro-2-(((2R,7aS)-2-fluorotetrahydro-1H-pyrrolizin-7a(5H)-yl)methoxy)pyrido[4,3-d]pyrimidin-4-yl)-2-oxa-5,8-diazaspiro[3.5]nonan-5-yl) but-2-en-1-one] had an IC50 of under 10 nM. `Cc1nccc(/C=C/C(=O)N2CCN(c3nc(OC[C@@]45CCCN4C[C@H](F)C5)nc4c(F)c(-c5cccc6ccc(F)c(F)c56)ncc34)CC23COC3)n1` [Example 5, (E)-1-(8-(7-(7,8-difluoronaphthalen-1-yl)-8-fluoro-2-(((2R,7aS)-2-fluorotetrahydro-1H-pyrrolizin-7a(5H)-yl)methoxy)pyrido[4,3-d]pyrimidin-4-yl)-2-oxa-5,8-diazaspiro[3.5]nonan-5-yl)-3-(2-methylpyrimidin-4-yl) prop-2-en-1-one]: the IC50 lay within 10 to 100 nM. Next, `Cc1nccc(/C=C/C(=O)N2CCN(c3nc(OC[C@@]45CCCN4C[C@H](F)C5)nc4c(F)c(-c5cccc6ccc(F)c(Cl)c56)ncc34)CC23COC3)n1` [Example 6, (E)-1-(8-(7-(8-chloro-7-fluoronaphthalen-1-yl)-8-fluoro-2-(((2R,7aS)-2-fluorotetrahydro-1H-pyrrolizin-7a(5H)-yl)methoxy)pyrido[4,3-d]pyrimidin-4-yl)-2-oxa-5,8-diazaspiro[3.5]nonan-5-yl)-3-(2-methylpyrimidin-4-yl) prop-2-en-1-one]: 10 to 100 nM. `Cc1nccc(/C=C/C(=O)N2CCN(c3nc(OCC45CCCN4CCC5)nc4c(F)c(-c5cccc6cccc(Cl)c56)ncc34)CC23COC3)n1` [Example 7, (E)-1-(8-(7-(8-chloronaphthalen-1-yl)-8-fluoro-2-((tetrahydro-1H-pyrrolizin-7a(5H)-yl)methoxy)pyrido[4,3-d]pyrimidin-4-yl)-2-oxa-5,8-diazaspiro[3.5]nonan-5-yl)-3-(2-methylpyrimidin-4-yl) prop-2-en-1-one]: the IC50 was in the range of 100 to 500 nM. On to `CO[C@@H]1CCN(C/C=C/C(=O)N2CCN(c3nc(OC[C@@]45CCCN4C[C@H](F)C5)nc4c(F)c(-c5cccc6ccc(F)c(Cl)c56)ncc34)CC23COC3)C1` [Example 8, (E)-1-(8-(7-(8-chloro-7-fluoronaphthalen-1-yl)-8-fluoro-2-(((2R,7aS)-2-fluorotetrahydro-1H-pyrrolizin-7a(5H)-yl)methoxy)pyrido[4,3-d]pyrimidin-4-yl)-2-oxa-5,8-diazaspiro[3.5]nonan-5-yl)-4-((R)-3-methoxypyrrolidin-1-yl) but-2-en-1-one], for which the concentration for half-maximal inhibition (IC50) lay within 10 to 100 nM.

`O=C(/C=C/CN1C[C@H]2C[C@@H]1CO2)N1CCN(c2nc(OC[C@@]34CCCN3C[C@H](F)C4)nc3c(F)c(-c4cccc5ccc(F)c(Cl)c45)ncc23)CC12COC2` [Example 9, (E)-4-((1R,4R)-2-oxa-5-azabicyclo[2.2.1]heptan-5-yl)-1-(8-(7-(8-chloro-7-fluoronaphthalen-1-yl)-8-fluoro-2-(((2R,7aS)-2-fluorotetrahydro-1H-pyrrolizin-7a(5H)-yl)methoxy)pyrido[4,3-d]pyrimidin-4-yl)-2-oxa-5,8-diazaspiro[3.5]nonan-5-yl) but-2-en-1-one] registered an IC50 of under 10 nM. For the molecule `Cc1nccc(/C=C/C(=O)N2CCN(c3nc(OCC45CCCN4CCC5)nc4c(F)c(-c5cccc6ccc(F)c(F)c56)ncc34)CC23COC3)n1` [Example 10, (E)-1-(8-(7-(7,8-difluoronaphthalen-1-yl)-8-fluoro-2-((tetrahydro-1H-pyrrolizin-7a(5H)-yl)methoxy)pyrido[4,3-d]pyrimidin-4-yl)-2-oxa-5,8-diazaspiro[3.5]nonan-5-yl)-3-(2-methylpyrimidin-4-yl) prop-2-en-1-one], the IC50 fell in the range of 100 to 500 nM. Take `Cc1nccc(/C=C/C(=O)N2CCN(c3nc(OCC45CCCN4CCC5)nc4c(F)c(-c5cccc6ccc(F)c(Cl)c56)ncc34)CC23COC3)n1` [Example 11, (E)-1-(8-(7-(8-chloro-7-fluoronaphthalen-1-yl)-8-fluoro-2-((tetrahydro-1H-pyrrolizin-7a(5H)-yl)methoxy)pyrido[4,3-d]pyrimidin-4-yl)-2-oxa-5,8-diazaspiro[3.5]nonan-5-yl)-3-(2-methylpyrimidin-4-yl) prop-2-en-1-one]: the IC50 was in the range of 100 to 500 nM. Take `O=C(/C=C/CN1CCOCC1)N1CCN(c2nc(OC[C@@]34CCCN3C[C@H](F)C4)nc3c(F)c(-c4cccc5cccc(Cl)c45)ncc23)CC12COC2` [Example 12, (E)-1-(8-(7-(8-chloronaphthalen-1-yl)-8-fluoro-2-(((2R,7aS)-2-fluorotetrahydro-1H-pyrrolizin-7a(5H)-yl)methoxy)pyrido[4,3-d]pyrimidin-4-yl)-2-oxa-5,8-diazaspiro[3.5]nonan-5-yl)-4-morpholinobut-2-en-1-one]: the IC50 was at least 500 nM. `O=C(/C=C/CN1C[C@H]2C[C@@H]1CO2)N1CCN(c2nc(OC[C@@]34CCCN3C[C@H](F)C4)nc3c(F)c(-c4cccc5cccc(Cl)c45)ncc23)CC12COC2` [Example 13, (E)-4-((1R,4R)-2-oxa-5-azabicyclo[2.2.1]heptan-5-yl)-1-(8-(7-(8-chloronaphthalen-1-yl)-8-fluoro-2-(((2R,7aS)-2-fluorotetrahydro-1H-pyrrolizin-7a(5H)-yl)methoxy)pyrido[4,3-d]pyrimidin-4-yl)-2-oxa-5,8-diazaspiro[3.5]nonan-5-yl) but-2-en-1-one] gave an IC50 of 10 to 100 nM.
